Assays:
δ-opioid receptor (DOR) = target: T1, δ-opioid receptor (DOR) (Rattus norvegicus, UniProt P33533); test: Opioid receptor binding, DOR ([3H]DADLE), rat brain homogenate; settings: for Ki: [3H]DADLE, whole rat brains excluding cerebellum, read-out: DOR Binding (Ki ± SEM); for fold lower affinity at DOR than at MOR: from Ki of Table 1
T1 construct: All assay tubes contained 100 μL homogenate suspension; from tissue; host or cells: whole rat brain excluding cerebellum, membrane homogenate

μ-opioid receptor (MOR) = target: T2, μ-opioid receptor (MOR) (Rattus norvegicus, UniProt P33535); test: Opioid receptor binding, MOR ([3H]DAMGO), rat brain homogenate; settings: [3H]DAMGO, whole rat brains excluding cerebellum; read-out: MOR Binding (Ki ± SEM)
T2 construct: All assay tubes contained 100 μL homogenate suspension; from tissue; host or cells: whole rat brain excluding cerebellum, membrane homogenate

[1] = target: T3, human δ-opioid receptor (OPRD1) (Homo sapiens, UniProt P41143); test: Forskolin-induced cAMP accumulation assay, DOR agonist mode
[2] = target: T4, human κ-opioid receptor (OPRK1) (Homo sapiens, UniProt P41145); test: Forskolin-induced cAMP accumulation assay, KOR antagonist mode; settings: for KOR Antagonist %Imax ± SEM: versus EC90 of U50488H, normalized to nor-BNI
[3] = target: T3, human δ-opioid receptor (OPRD1); test: cell-based
[4] = target: T3, human δ-opioid receptor (OPRD1); settings: versus EC50 of SNC80; normalized to naltrexone
κ-opioid receptor (KOR) = target: T5, κ-opioid receptor (KOR) (Rattus norvegicus, UniProt P34975); test: Opioid receptor binding, KOR ([3H]U69,593), rat brain homogenate; settings: for Ki: [3H]U69,593, whole rat brains excluding cerebellum, read-out: KOR Binding (Ki ± SEM); for fold lower affinity at KOR than at MOR: from Ki of Table 1
T5 construct: All assay tubes contained 100 μL homogenate suspension; from tissue; host or cells: whole rat brain excluding cerebellum, membrane homogenate

[5] = target: T4, human κ-opioid receptor (OPRK1); test: Forskolin-induced cAMP accumulation assay, KOR agonist mode
CYP2C9 = CYP2C9 (Homo sapiens, UniProt P11712); test: P450 inhibition, human liver microsomal CYP2C9; settings: microsomes
CYP1A2 = target: T6, CYP1A2 (Homo sapiens, UniProt P05177); test: P450 inhibition, human liver microsomal CYP1A2; settings: microsomes
T6 sequence (P05177 1-516): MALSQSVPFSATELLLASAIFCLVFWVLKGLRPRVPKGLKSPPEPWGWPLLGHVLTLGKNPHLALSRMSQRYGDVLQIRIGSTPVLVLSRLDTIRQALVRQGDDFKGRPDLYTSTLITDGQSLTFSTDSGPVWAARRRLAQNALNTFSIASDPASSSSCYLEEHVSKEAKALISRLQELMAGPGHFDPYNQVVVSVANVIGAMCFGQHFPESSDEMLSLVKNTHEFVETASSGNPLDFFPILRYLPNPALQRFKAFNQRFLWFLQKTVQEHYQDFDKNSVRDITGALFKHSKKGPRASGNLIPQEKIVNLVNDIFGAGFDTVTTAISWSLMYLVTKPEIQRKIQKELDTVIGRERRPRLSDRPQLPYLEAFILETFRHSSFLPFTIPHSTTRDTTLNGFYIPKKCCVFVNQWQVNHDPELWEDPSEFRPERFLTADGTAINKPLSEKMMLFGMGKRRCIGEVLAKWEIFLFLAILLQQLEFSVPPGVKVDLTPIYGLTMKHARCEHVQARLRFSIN

CYP2D6 = target: T7, CYP2D6 (Homo sapiens, UniProt P10635); test: P450 inhibition, human liver microsomal CYP2D6; assay type: in vitro ADME
T7 construct: selected human liver microsomal cytochrome P450 isozymes (CYP1A2, CYP2C9, CYP2C19, CYP2D6, and CYP3A); from tissue; host or cells: human liver microsomes

CYP3A = test: P450 inhibition, human liver microsomal CYP3A; assay type: in vitro ADME; settings: human liver microsomes, read-out: 3A %Inhibition
CYP2C19 = CYP2C19 (Homo sapiens, UniProt P33261); test: in vitro; settings: microsomes
in vitro [6] = settings: mouse, microsomes
in vitro [7] = settings: human, microsomes
[8] = Microsomal metabolic stability, mouse liver microsomes; settings: for Remaining (NCF = 60 min): MLM 0.5, no co-factor (no NADPH); for Remaining (T = 60 min): MLM 0.5, with NADPH
[9] = Microsomal metabolic stability, human liver microsomes
mu-opioid receptor (MOR) = settings: N-substituted 5-phenylmorphans; read-out: affinity at MOR Ki; cited from earlier work
[10] = test system: cloned human mu-opioid receptor; settings: [35S]GTPγS functional assay; cited from earlier work
[11] = forskolin-induced cAMP accumulation assay

T1 sequence (P33533 whole entry): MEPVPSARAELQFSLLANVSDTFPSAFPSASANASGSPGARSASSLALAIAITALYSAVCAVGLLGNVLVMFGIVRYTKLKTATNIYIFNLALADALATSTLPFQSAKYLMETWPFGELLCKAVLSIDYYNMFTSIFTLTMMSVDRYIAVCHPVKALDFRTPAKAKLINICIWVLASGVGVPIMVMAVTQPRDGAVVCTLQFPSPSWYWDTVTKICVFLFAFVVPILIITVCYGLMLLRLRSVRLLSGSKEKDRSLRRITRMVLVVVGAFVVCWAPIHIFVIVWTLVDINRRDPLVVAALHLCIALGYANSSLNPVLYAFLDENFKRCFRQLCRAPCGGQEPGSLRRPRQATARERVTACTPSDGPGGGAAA
T3 sequence (P41143 whole entry): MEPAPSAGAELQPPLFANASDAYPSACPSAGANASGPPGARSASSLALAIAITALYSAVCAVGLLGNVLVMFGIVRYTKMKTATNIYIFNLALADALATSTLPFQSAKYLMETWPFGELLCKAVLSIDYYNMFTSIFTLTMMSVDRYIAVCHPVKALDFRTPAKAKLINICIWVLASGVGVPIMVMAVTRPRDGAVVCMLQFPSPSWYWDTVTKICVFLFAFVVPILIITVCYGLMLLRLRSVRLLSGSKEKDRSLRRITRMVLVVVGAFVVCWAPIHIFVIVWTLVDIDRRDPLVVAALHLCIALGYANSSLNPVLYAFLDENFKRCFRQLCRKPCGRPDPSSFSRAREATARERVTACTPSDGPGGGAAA
T5 sequence (P34975 whole entry): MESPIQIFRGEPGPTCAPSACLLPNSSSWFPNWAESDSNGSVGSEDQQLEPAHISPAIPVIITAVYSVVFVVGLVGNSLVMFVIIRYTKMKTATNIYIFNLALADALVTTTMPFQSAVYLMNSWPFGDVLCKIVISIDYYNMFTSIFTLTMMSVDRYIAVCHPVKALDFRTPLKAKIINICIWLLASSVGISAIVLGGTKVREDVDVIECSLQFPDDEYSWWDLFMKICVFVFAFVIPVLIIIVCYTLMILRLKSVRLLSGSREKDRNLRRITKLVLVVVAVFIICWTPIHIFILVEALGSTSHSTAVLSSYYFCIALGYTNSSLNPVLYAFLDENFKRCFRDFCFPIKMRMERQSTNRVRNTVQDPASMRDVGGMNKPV
T4 sequence (P41145 whole entry): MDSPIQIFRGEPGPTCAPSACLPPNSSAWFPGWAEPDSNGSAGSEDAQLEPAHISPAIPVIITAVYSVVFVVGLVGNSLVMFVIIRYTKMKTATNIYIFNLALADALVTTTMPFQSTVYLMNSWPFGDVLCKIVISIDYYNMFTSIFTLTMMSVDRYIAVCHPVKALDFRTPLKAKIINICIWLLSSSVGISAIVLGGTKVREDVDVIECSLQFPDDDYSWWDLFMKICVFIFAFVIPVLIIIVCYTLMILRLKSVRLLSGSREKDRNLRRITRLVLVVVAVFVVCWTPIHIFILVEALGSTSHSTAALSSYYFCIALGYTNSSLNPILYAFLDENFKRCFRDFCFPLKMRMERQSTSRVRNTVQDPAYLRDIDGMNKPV
Sequence of CYP2C9 (P11712 whole entry): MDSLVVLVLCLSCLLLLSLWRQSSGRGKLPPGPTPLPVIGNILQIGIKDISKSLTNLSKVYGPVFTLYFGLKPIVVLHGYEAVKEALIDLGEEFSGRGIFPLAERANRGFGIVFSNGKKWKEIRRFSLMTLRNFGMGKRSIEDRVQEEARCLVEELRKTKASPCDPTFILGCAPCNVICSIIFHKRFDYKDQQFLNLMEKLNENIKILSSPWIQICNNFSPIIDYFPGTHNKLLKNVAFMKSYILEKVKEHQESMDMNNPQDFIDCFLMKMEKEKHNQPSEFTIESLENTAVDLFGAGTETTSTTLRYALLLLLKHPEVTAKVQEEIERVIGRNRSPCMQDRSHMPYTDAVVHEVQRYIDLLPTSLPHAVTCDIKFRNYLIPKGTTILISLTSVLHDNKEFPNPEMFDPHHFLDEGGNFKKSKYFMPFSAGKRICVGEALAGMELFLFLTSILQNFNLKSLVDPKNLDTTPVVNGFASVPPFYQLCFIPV
T7 sequence (P10635 whole entry): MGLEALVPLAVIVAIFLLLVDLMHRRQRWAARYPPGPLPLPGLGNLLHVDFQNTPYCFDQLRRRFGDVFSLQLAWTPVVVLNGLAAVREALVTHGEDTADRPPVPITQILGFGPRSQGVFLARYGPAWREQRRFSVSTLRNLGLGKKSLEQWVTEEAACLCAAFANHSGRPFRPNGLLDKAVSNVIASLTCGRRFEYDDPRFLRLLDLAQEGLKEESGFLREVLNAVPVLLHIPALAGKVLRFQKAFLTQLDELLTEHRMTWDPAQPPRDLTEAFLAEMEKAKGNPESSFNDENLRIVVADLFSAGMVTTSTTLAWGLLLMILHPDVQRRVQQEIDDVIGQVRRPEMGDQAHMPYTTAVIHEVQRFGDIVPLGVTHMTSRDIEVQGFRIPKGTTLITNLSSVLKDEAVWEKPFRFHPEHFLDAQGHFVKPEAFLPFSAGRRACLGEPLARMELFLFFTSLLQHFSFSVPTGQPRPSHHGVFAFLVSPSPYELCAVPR
Sequence of CYP2C19 (P33261 whole entry): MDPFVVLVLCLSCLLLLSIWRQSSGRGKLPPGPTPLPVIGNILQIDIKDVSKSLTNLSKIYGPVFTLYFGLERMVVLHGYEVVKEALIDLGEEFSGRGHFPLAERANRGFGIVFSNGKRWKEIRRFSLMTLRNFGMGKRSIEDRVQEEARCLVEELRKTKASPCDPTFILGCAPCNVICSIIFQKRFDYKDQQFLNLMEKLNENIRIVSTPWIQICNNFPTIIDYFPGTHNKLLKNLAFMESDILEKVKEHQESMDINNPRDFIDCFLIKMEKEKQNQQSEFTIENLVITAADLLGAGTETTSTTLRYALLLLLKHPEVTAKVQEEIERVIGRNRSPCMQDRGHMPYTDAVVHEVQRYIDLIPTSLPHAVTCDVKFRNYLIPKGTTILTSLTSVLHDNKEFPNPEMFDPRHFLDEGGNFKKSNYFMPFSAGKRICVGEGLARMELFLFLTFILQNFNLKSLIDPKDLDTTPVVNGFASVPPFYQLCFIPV
T2 sequence (P33535 whole entry): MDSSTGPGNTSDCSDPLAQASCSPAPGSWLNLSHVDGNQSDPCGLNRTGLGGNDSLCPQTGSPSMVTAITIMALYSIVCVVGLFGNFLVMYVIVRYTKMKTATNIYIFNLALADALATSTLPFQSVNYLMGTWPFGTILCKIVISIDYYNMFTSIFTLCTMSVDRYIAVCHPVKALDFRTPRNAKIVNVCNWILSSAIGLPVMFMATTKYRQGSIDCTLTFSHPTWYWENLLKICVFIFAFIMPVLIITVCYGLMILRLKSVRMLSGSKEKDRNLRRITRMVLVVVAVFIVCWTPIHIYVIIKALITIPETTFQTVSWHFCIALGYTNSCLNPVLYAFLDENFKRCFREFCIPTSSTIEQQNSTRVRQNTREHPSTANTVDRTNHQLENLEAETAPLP

| SMILES | Ki (δ-opioid receptor (DOR)) [nM] | fold lower affinity at DOR than at MOR (δ-opioid receptor (DOR)) | Ki (μ-opioid receptor (MOR)) [nM] | EC50 [1] [nM] | IC50 [2] [nM] | KOR Antagonist %Imax ± SEM [2] [%] | IC50 [3] [nM] | DOR Antagonist %Imax ± SEM [4] [%] | Ki (κ-opioid receptor (KOR)) [nM] | fold lower affinity at KOR than at MOR (κ-opioid receptor (KOR)) | EC50 [5] [nM] | inhibition at 10 µM (CYP2C9) [%] | inhibition at 10 µM (CYP1A2) [%] | inhibition at 10 µM (CYP3A) [%] | inhibition at 10 µM (CYP2C19) [%] | Remaining (NCF = 60 min) [8] [%] | Remaining (T = 60 min) [8] [%] | further results |
| --- | --- | --- | --- | --- | --- | --- | --- | --- | --- | --- | --- | --- | --- | --- | --- | --- | --- | --- |
| Oc1cccc2c1O[C@H]1CN(CCc3ccccc3)[C@H]3CCC[C@@]21C3 [(-)-1, (3S,6aR,11aR)-2-Phenethyl-1,3,4,5,6,11a-hexahydro-2H-3,6a-methano-benzofuro[2,3-c]azocin-10-ol] | 34.8 ± 4.4 | approximately 30 fold | 1.11 ± 0.15 | > 10000 | 102 ± 65.8 | 109.3 ± 8.1 | 409 ± 138 | 86.5 ± 6.4 | 13 ± 1.2 | about 10 fold | > 10000 |  |  |  |  |  |  |  |
| Oc1cccc2c1O[C@H]1CN(C[C@H]3C[C@@H]3c3ccccc3)[C@H]3CCC[C@@]21C3 [(+)-17, (3S,6aR,11aR)-2-(((1S,2S)-2-Phenylcyclopropyl)methyl)-1,3,4,5,6,11a-hexahydro-2H-3,6a-methanobenzofuro[2,3-c]azocin-10-ol] | 49.4 ± 5.1 | approximately 4 fold | 11.9 ± 1.6 | > 10000 | 206 ± 63.2 | 106.1 ± 5.5 | 487 ± 157 | 160.9 ± 4.0 | 100 ± 10 | about 10 fold | > 10000 | 36.6 | 6.8 | 24.7 | 46.6 | 94.4 | 0.2 | functional agonist activity at DOR [1, 11]: did not have functional agonist activity; 2D6 %Inhibition (CYP2D6; 10 µM): 66.8%; inhibition at 10 µM (CYP2D6; human, human liver microsomes, read-out: 2D6 %Inhibition): > 50%; CLint scaled (in vitro [6]): 801 mL/min/kg; half-life (in vitro [6]): 6.9 min; microsomal CLint (in vitro [6]): 202 µL/min/mg; CLint scaled (in vitro [7]): 62 mL/min/kg; half-life (in vitro [7]): 20.1 min; microsomal CLint (in vitro [7]): 68.9 µL/min/mg; functional agonist activity at KOR [5, 11]: did not have functional agonist activity; Remaining (NCF = 60 min) ([9]; HLM 0.5, no co-factor (no NADPH)): 98.5%; Remaining (T = 60 min) ([9]; HLM 0.5, with NADPH): 13.0% |
| O=C1CC[C@@]2(O)[C@H]3Cc4ccc(O)c5c4[C@@]2(CCN3CC2CC2)[C@H]1O5 [Naltrexone] |  |  |  |  |  |  |  |  |  |  |  | 0 |  |  | 0 | 84.3 | 48.1 | Remaining (NCF = 60 min) ([9]; human, microsomes, 1 h): 99.8%; Remaining (T = 60 min) ([9]; human, microsomes, 1 h): 97.1% |
| Oc1cccc(C23CCCC(C2)N(CC2CC2c2ccccc2)CC3)c1 (single isomer, unassigned; (+)) [(+)-2] |  |  |  |  |  |  |  |  |  |  |  |  |  |  |  |  |  | Ki (mu-opioid receptor (MOR)): 3 nM; mu-opioid antagonist activity Ke [10]: 0.17 nM |
| CC(=O)N1CCN(c2ccc(OCC3COC(Cn4ccnc4)(c4ccc(Cl)cc4Cl)O3)cc2)CC1 (centres unmarked) [Ketoconazole, reference compound] |  |  |  |  |  |  |  |  |  |  |  |  |  | 98.8 |  |  |  |  |
| O=c1cc(-c2ccccc2)oc2c1ccc1ccccc12 [α-Naphthoflavone, reference compound] |  |  |  |  |  |  |  |  |  |  |  |  | 88.3 |  |  |  |  |  |

Source: article PMC9785231, “Synthesis and Pharmacological Evaluation of Enantiopure N-Substituted Ortho-c Oxide-Bridged 5-Phenylmorphans” (Molecules, 2022)
